This note sets out measurements from US10052331B2, “3-(3H-imidazo[4,5-C]pyridin-2-yl)-1H-pyrazolo[3,4-C]pyridine and therapeutic uses thereof” (Samumed, LLC, priority 2014, dated 2018).

By IC50 is commonly meant the midpoint of a concentration-inhibition curve. A high value points to weaker potency.

In this assay the test system is Wnt activity (Wnt-responsive Sp5 promoter-luciferase reporter in SW480 cells). Nature of the assay: Wnt activity screening assay: Sp5-Luc reporter gene in SW480 colon carcinoma cells. Format: cell-based. Conditions: Homo sapiens. From the text:
The screening assay for Wnt activity is described as follows. Reporter cell lines can be generated by stably transducing cancer cell lines (e.g., colon cancer) or primary cells (e.g., IEC-6 intestinal cells) with a lentiviral construct that includes a Wnt-responsive promoter driving expression of the firefly luciferase gene.
SW480 colon carcinoma cells were transduced with a lentiviral vector expressing luciferase with a human Sp5 promoter consisting of a sequence of eight TCF/LEF binding sites. SW480 cells stably expressing the Sp5-Luc reporter gene and a hygromycin resistance gene were selected by treatment with 150 μg/ml of hygromycin for 7 days. These stably transduced SW480 cells were expanded in cell culture and used for all further screening activities. For Sp5-Luc reporter gene assays, the cells were plated at 10,000 cells/well in 96-well plates with growth medium containing 10% fetal calf serum and incubated overnight at 37° C. and 5% CO2. Each compound was dissolved in DMSO as a 10 mM stock in standard j-vials and used to prepare compound source plates in dose-response format with 3-fold serial dilutions and a 10 mM top concentration. Compound transfer from serially diluted source plates to assay plates containing the cells was accomplished using a pintool (Multimek 96, Beckman equipped with V&P Scientific FP1S50H pins) based liquid handling protocol. This protocol used a slotted pin to transfer 50 nl of compound from a source plate well to an assay plate well containing 50 μl of cells in growth medium. […] Control wells received 50 nl of DMSO treatment for normalization and calculating IC50 values. The treated cells were incubated at 37° C. and 5% CO2 for an additional forty-two hours. Following incubation, the growth medium was removed and 50 μl of BrightGlo luminescence reagent (Promega) was added to each well of the 96-well assay plates. The plates were placed on an orbital shaker for 5 min and then luminescence was quantified on the Victor3 (Perkin Elmer) plate reader. Readings were normalized to DMSO only treated cells, and normalized activities were utilized for IC50 calculations using the dose-response log (inhibitor) vs. response-variable slope (four parameters) nonlinear regression feature available in GraphPad Prism 5.0 or 6.0.

As for `CCC(=O)Nc1cncc(-c2cc3c(-c4nc5c(-c6cccc(F)c6)cncc5[nH]4)n[nH]c3cn2)c1` [Compound 1, N-(5-(3-(7-(3-Fluorophenyl)-3H-imidazo[4,5-c]pyridin-2-yl)-1H-pyrazolo[3,4-c]pyridin-5-yl)pyridin-3-yl)propionamide], 61 nM corresponded to half-maximal inhibition (IC50). Then `CC(C)CC(=O)Nc1cncc(-c2cc3c(-c4nc5c(-c6cccc(F)c6)cncc5[nH]4)n[nH]c3cn2)c1` [Compound 2, N-(5-(3-(7-(3-Fluorophenyl)-3H-imidazo[4,5-c]pyridin-2-yl)-1H-pyrazolo[3,4-c]pyridin-5-yl)pyridin-3-yl)-3-methylbutanamide], with 120 nM; and `CCCC(=O)Nc1cncc(-c2cc3c(-c4nc5c(-c6cccc(F)c6)cncc5[nH]4)n[nH]c3cn2)c1` [Compound 17, N-(5-(3-(7-(3-Fluorophenyl)-3H-imidazo[4,5-c]pyridin-2-yl)-1H-pyrazolo[3,4-c]pyridin-5-yl)pyridin-3-yl)butyramide], with 17 nM; and `O=C(Nc1cncc(-c2cc3c(-c4nc5c(-c6cccc(F)c6)cncc5[nH]4)n[nH]c3cn2)c1)C1CC1` [Compound 19, N-(5-(3-(7-(3-Fluorophenyl)-3H-imidazo[4,5-c]pyridin-2-yl)-1H-pyrazolo[3,4-c]pyridin-5-yl)pyridin-3-yl)cyclopropanecarboxamide], with 21.6 nM. Then `CC(C)CC(=O)Nc1cncc(-c2cc3c(-c4nc5c(-c6ccc(F)cc6)cncc5[nH]4)n[nH]c3cn2)c1` [Compound 28, N-(5-(3-(7-(4-Fluorophenyl)-3H-imidazo[4,5-c]pyridin-2-yl)-1H-pyrazolo[3,4-c]pyridin-5-yl)pyridin-3-yl)-3-methylbutanamide], with 170 nM; and `CC(C)(C)C(=O)Nc1cncc(-c2cc3c(-c4nc5c(-c6ccc(F)cc6)cncc5[nH]4)n[nH]c3cn2)c1` [Compound 34, N-(5-(3-(7-(4-Fluorophenyl)-3H-imidazo[4,5-c]pyridin-2-yl)-1H-pyrazolo[3,4-c]pyridin-5-yl)pyridin-3-yl)pivalamide], with 174 nM; and `O=C(Nc1cncc(-c2cc3c(-c4nc5c(-c6ccc(F)cc6)cncc5[nH]4)n[nH]c3cn2)c1)C1CCC1` [Compound 46, N-(5-(3-(7-(4-Fluorophenyl)-3H-imidazo[4,5-c]pyridin-2-yl)-1H-pyrazolo[3,4-c]pyridin-5-yl)pyridin-3-yl)cyclobutanecarboxamide], with 165 nM. Then `CC(C)C(=O)Nc1cncc(-c2cc3c(-c4nc5c(-c6ccccc6F)cncc5[nH]4)n[nH]c3cn2)c1` [Compound 61, N-(5-(3-(7-(2-Fluorophenyl)-3H-imidazo[4,5-c]pyridin-2-yl)-1H-pyrazolo[3,4-c]pyridin-5-yl)pyridin-3-yl)isobutyramide], with 123 nM; and `CC(C)(C)CC(=O)Nc1cncc(-c2cc3c(-c4nc5c(-c6ccccc6F)cncc5[nH]4)n[nH]c3cn2)c1` [Compound 68, N-(5-(3-(7-(2-Fluorophenyl)-3H-imidazo[4,5-c]pyridin-2-yl)-1H-pyrazolo[3,4-c]pyridin-5-yl)pyridin-3-yl)-3,3-dimethylbutanamide], with 167 nM.

`CCCCC(=O)Nc1cncc(-c2cc3c(-c4nc5c(-c6ccccc6F)cncc5[nH]4)n[nH]c3cn2)c1` [Compound 70, N-(5-(3-(7-(2-Fluorophenyl)-3H-imidazo[4,5-c]pyridin-2-yl)-1H-pyrazolo[3,4-c]pyridin-5-yl)pyridin-3-yl)pentanamide]: the IC50 was 127 nM. Then `CC(C)C(=O)Nc1cncc(-c2cc3c(-c4nc5c(-c6cccnc6)cncc5[nH]4)n[nH]c3cn2)c1` [Compound 87, N-(5-(3-(7-(Pyridin-3-yl)-3H-imidazo[4,5-c]pyridin-2-yl)-1H-pyrazolo[3,4-c]pyridin-5-yl)pyridin-3-yl)isobutyramide], with more than 10000 nM; and `CC(C)Nc1cncc(-c2cc3c(-c4nc5c(-c6cccnc6)cncc5[nH]4)n[nH]c3cn2)c1` [Compound 90, N-Isopropyl-5-(3-(7-(pyridin-3-yl)-3H-imidazo[4,5-c]pyridin-2-yl)-1H-pyrazolo[3,4-c]pyridin-5-yl)pyridin-3-amine], with 93.5 nM; and `CCCCC(=O)Nc1cncc(-c2cc3c(-c4nc5c(-c6ccoc6)cncc5[nH]4)n[nH]c3cn2)c1` [Compound 278, N-(5-(3-(7-(Furan-3-yl)-3H-imidazo[4,5-c]pyridin-2-yl)-1H-pyrazolo[3,4-c]pyridin-5-yl)pyridin-3-yl)pentanamide], with 115 nM.

Regarding `CC(C)CC(=O)Nc1cncc(-c2cc3c(-c4nc5c(-c6cccs6)cncc5[nH]4)n[nH]c3cn2)c1` [Compound 288, 3-Methyl-N-(5-(3-(7-(thiophen-2-yl)-3H-imidazo[4,5-c]pyridin-2-yl)-1H-pyrazolo[3,4-c]pyridin-5-yl)pyridin-3-yl)butanamide], the IC50 was found to be 79 nM. This IC50 and that of the molecule before are within 1.5-fold of each other. For `Fc1cccc(-c2cncc3[nH]c(-c4n[nH]c5cnc(-c6cn[nH]c6)cc45)nc23)c1` [Compound 887, 3-(7-(3-Fluorophenyl)-3H-imidazo[4,5-c]pyridin-2-yl)-5-(1H-pyrazol-4-yl)-1H-pyrazolo[3,4-c]pyridine], the midpoint of inhibition, the IC50, lay at 6 nM. To `Fc1cccc(-c2cncc3[nH]c(-c4n[nH]c5cnc(-c6cncc(OC7CCCCC7)c6)cc45)nc23)c1` [Compound 891, 5-(5-(Cyclohexyloxy)pyridin-3-yl)-3-(7-(3-fluorophenyl)-3H-imidazo[4,5-c]pyridin-2-yl)-1H-pyrazolo[3,4-c]pyridine] belongs 735 nM. Then `Fc1cccc(-c2cncc3[nH]c(-c4n[nH]c5cnc(-c6cncc(OC7CCNCC7)c6)cc45)nc23)c1` [Compound 892, 3-(7-(3-Fluorophenyl)-3H-imidazo[4,5-c]pyridin-2-yl)-5-(5-(piperidin-4-yloxy)pyridin-3-yl)-1H-pyrazolo[3,4-c]pyridine], with more than 10000 nM; and `Fc1cccc(-c2cncc3[nH]c(-c4n[nH]c5cnc(-c6cncc(OCCN7CCCC7)c6)cc45)nc23)c1` [Compound 894, 3-(7-(3-Fluorophenyl)-3H-imidazo[4,5-c]pyridin-2-yl)-5-(5-(2-(pyrrolidin-1-yl)ethoxy)pyridin-3-yl)-1H-pyrazolo[3,4-c]pyridine], with more than 10000 nM; and `Fc1cccc(-c2cncc3[nH]c(-c4n[nH]c5cnc(-c6cncc(OCc7ccccc7)c6)cc45)nc23)c1` [Compound 898, 5-(5-(Benzyloxy)pyridin-3-yl)-3-(7-(3-fluorophenyl)-3H-imidazo[4,5-c]pyridin-2-yl)-1H-pyrazolo[3,4-c]pyridine], with 520 nM. To `O=C(CC1CCCCC1)Nc1cncc(-c2cc3c(-c4nc5c(-c6cccc(F)c6)cncc5[nH]4)n[nH]c3cn2)c1` [Compound 899, 2-Cyclohexyl-N-(5-(3-(7-(3-fluorophenyl)-3H-imidazo[4,5-c]pyridin-2-yl)-1H-pyrazolo[3,4-c]pyridin-5-yl)pyridin-3-yl)acetamide] belongs 1740 nM; to `Fc1cccc(-c2cncc3[nH]c(-c4n[nH]c5cnc(-c6cnccn6)cc45)nc23)c1` [Compound 902, 3-(7-(3-Fluorophenyl)-3H-imidazo[4,5-c]pyridin-2-yl)-5-(pyrazin-2-yl)-1H-pyrazolo[3,4-c]pyridine], 50 nM; to `CC(C)CC(=O)Nc1cncc(-c2cc3c(-c4nc5c(-c6cc(F)cc(OCCN(C)C)c6)cncc5[nH]4)n[nH]c3cn2)c1` [Compound 1192, N-(5-(3-(7-(3-(2-(Dimethylamino)ethoxy)-5-fluorophenyl)-3H-imidazo[4,5-c]pyridin-2-yl)-1H-pyrazolo[3,4-c]pyridin-5-yl)pyridin-3-yl)-3-methylbutanamide], more than 10000 nM. In turn, `CC(C)CC(=O)Nc1cncc(-c2cc3c(-c4nc5c(-c6cc(F)cc(OCCN7CCCC7)c6)cncc5[nH]4)n[nH]c3cn2)c1` [Compound 1236, N-(5-(3-(7-(3-Fluoro-5-(2-(pyrrolidin-1-yl)ethoxy)phenyl)-3H-imidazo[4,5-c]pyridin-2-yl)-1H-pyrazolo[3,4-c]pyridin-5-yl)pyridin-3-yl)-3-methylbutanamide] gave an IC50 of more than 10000 nM.
